Measured values from patent publication US10253007B2, “Taxanes compounds, preparation method therefor, and uses thereof” (Jiangsu Tasly Diyi Pharmaceutical Co., Ltd., priority 2013, dated 2019).

How the values were obtained:
[1] = MTT assay, proliferation inhibition; format: cell-based; conditions: Homo sapiens, LN-18 gastric cancer, read-out: Proliferation inhibition rate
Description: (§1) 1. Cytotoxicity Assay Using Human Tumor Cell Lines
(§2) Paclitaxel was used as the positive drug.

[2] = tested on: A2780 ovarian cancer; assay: MTT assay, proliferation inhibition; format: cell-based; conditions: Homo sapiens, read-out: Proliferation inhibition rate
Description: as §1, §2

[3] = tested on: A375 melanoma; assay: MTT assay, proliferation inhibition; format: cell-based; conditions: Homo sapiens, A-375, read-out: Proliferation inhibition rate
Description: as §1, §2

[4] = tested on: A549 non-small cell lung cancer; assay: MTT assay, proliferation inhibition; format: cell-based; conditions: Homo sapiens, read-out: Proliferation inhibition rate
Description: as §1, §2

[5] = tested on: B16 melanoma; assay: MTT assay, proliferation inhibition; format: cell-based; conditions: read-out: Proliferation inhibition rate
Description: as §1, §2

[6] = tested on: BGC-823 gastric cancer; assay: MTT assay, proliferation inhibition; format: cell-based; conditions: Homo sapiens, read-out: Proliferation inhibition rate
Description: as §1, §2

[7] = tested on: DU145 prostate cancer; assay: MTT assay, proliferation inhibition; format: cell-based; conditions: Homo sapiens, DU-145, read-out: Proliferation inhibition rate
Description: as §1, §2

[8] = tested on: HCT 116 colon cancer; assay: MTT assay, proliferation inhibition; format: cell-based; conditions: Homo sapiens, read-out: Proliferation inhibition rate
Description: as §1, §2

[9] = tested on: HL60 leukemia; assay: MTT assay, proliferation inhibition; format: cell-based; conditions: Homo sapiens, HL-60, read-out: Proliferation inhibition rate
Description: as §1, §2

[10] = tested on: HT29 colon cancer; assay: MTT assay, proliferation inhibition; format: cell-based; conditions: Homo sapiens, HT-29, read-out: Proliferation inhibition rate
Description: as §1, §2

[11] = tested on: HeLa cervical cancer; assay: MTT assay, proliferation inhibition; format: cell-based; conditions: Homo sapiens, read-out: Proliferation inhibition rate
Description: as §1, §2

[12] = tested on: K562 leukemia; assay: MTT assay, proliferation inhibition; format: cell-based; conditions: Homo sapiens, read-out: Proliferation inhibition rate
Description: as §1, §2

[13] = tested on: LNCaP prostate cancer; assay: MTT assay, proliferation inhibition; format: cell-based; conditions: Homo sapiens, read-out: Proliferation inhibition rate
Description: as §1, §2

[14] = tested on: MCF-7 breast cancer; assay: MTT assay, proliferation inhibition; format: cell-based; conditions: Homo sapiens, MCF7, read-out: Proliferation inhibition rate
Description: as §1, §2

[15] = tested on: MDA-MB-436 breast cancer; assay: MTT assay, proliferation inhibition; format: cell-based; conditions: Homo sapiens, read-out: Proliferation inhibition rate
Description: as §1, §2

[16] = tested on: NCI-H460 non-small cell lung cancer; assay: MTT assay, proliferation inhibition; format: cell-based; conditions: Homo sapiens, read-out: Proliferation inhibition rate
Description: as §1, §2

[17] = Caco-2 cell monolayer membrane transport assay; conditions: human, A-B; for Papp A→B: Caco-2, Papp A-B; for recovery: Caco-2, Recovery rate in mass
Description: Caco-2 Cell Monolayer Membrane Transport Assay
Human-derived colorectal adenocarcinoma cell line Caco-2 cell monolayer model was used to study the bidirectional transport of the target compounds from the apical (AP) side to the basolateral (BL) side and from BL side to AP side. HPLC was used for quantitative analysis to calculate transport parameters, apparent permeability coefficient (Papp) and the efflux ratio.

[18] = Mean, Caco-2, mean of two samples

Row | SMILES | inhibition at 1 µM [1] | inhibition at 1 µM [2] | inhibition at 1 µM [3] | inhibition at 1 µM [4] | inhibition at 1 µM [5] | inhibition at 1 µM [6] | inhibition at 1 µM [7] | inhibition at 1 µM [8] | inhibition at 1 µM [9] | inhibition at 1 µM [10] | inhibition at 1 µM [11] | inhibition at 1 µM [12] | inhibition at 1 µM [13] | inhibition at 1 µM [14] | inhibition at 1 µM [15] | inhibition at 1 µM [16] | Papp A→B ([17]; Sample-01, Caco-2, Sample-01) | Papp A→B ([17]; Sample-02, Caco-2, Sample-02) | recovery [17, 18] | recovery ([17]; Sample-01, Caco-2, Sample-01) | other results
1 | COC(=O)O[C@H]1C[C@H]2OC[C@@]2(OC(C)=O)[C@H]2[C@H](OC(=O)c3ccccc3)[C@]3(O)C[C@H](OC(=O)[C@H](O)[C@@H](NC(=O)c4ccccc4)c4ccccc4)C(C)=C([C@@H](OC)C(=O)[C@]12C)C3(C)C [PCMI-37] | 98.3% | 96.4% | 97.4% | 80% | 85.3% | 95.7% | 88.5% | 67.4% | 97% | 89.7% | 102% | 94.5% | 85.5% | 103% | 86.1% | 89.5% | 3.23 ×10⁻⁶ cm/s | 3.41 ×10⁻⁶ cm/s | 80.6% | 81.2% | recovery ([17]; Sample-02, Caco-2, Sample-02): 80%
2 | COC(=O)O[C@H]1C(=O)[C@]2(C)[C@@H](OC)C[C@H]3OC[C@@]3(OC(C)=O)[C@H]2[C@H](OC(=O)c2ccccc2)[C@]2(O)C[C@H](OC(=O)[C@H](O)[C@@H](NC(=O)N(C)C)c3ccccc3)C(C)=C1C2(C)C [PCMI-29] | 97.7% | 92.5% | 92.8% | 78.1% | 80.6% | 90.8% | 86.7% | 68.7% | 96.8% | 81.7% | 97.3% | 90.8% | 84.3% | 91.3% | 75.7% | 85.2% | 9.53 ×10⁻⁶ cm/s | 7.33 ×10⁻⁶ cm/s | 99.4% | 102% | Papp A→B [17, 18]: 8.43 ×10⁻⁶ cm/s; recovery ([17]; Sample-02, Caco-2, Sample-02): 97%
3 | CCSC(=O)O[C@H]1C(=O)[C@]2(C)[C@@H](OC)C[C@H]3OC[C@@]3(OC(C)=O)[C@H]2[C@H](OC(=O)c2ccccc2)[C@]2(O)C[C@H](OC(=O)[C@H](O)[C@@H](NC(=O)OC(C)(C)C)c3ccccc3)C(C)=C1C2(C)C [PCMI-30] | 95% | 95.6% | 96.9% | 75.8% | 81.7% | 94.9% | 90.3% | 65.5% | 98.5% | 87.8% | 101% | 92.6% | 86.2% | 95.8% | 81.3% | 85.8% | 5.78 ×10⁻⁶ cm/s | 3.59 ×10⁻⁶ cm/s | 76.5% | 70.4% | Papp A→B [17, 18]: 4.68 ×10⁻⁶ cm/s; recovery ([17]; Sample-02, Caco-2, Sample-02): 82.6%
4 | COC(=O)O[C@H]1C[C@H]2OC[C@@]2(OC(C)=O)[C@H]2[C@H](OC(=O)c3ccccc3)[C@]3(O)C[C@H](OC(=O)[C@H](O)[C@@H](NC(=O)OC(C)(C)C)c4ccccn4)C(C)=C([C@@H](OC)C(=O)[C@]12C)C3(C)C [PCMI-38] | 96.6% | 96.5% | 88.3% | 80.3% | 83.3% | 95.7% | 89.2% | 64% | 97.4% | 89.8% | 102% | 94.7% | 82.4% | 106% | 85.9% | 88.7% | 4.71 ×10⁻⁶ cm/s | 4.35 ×10⁻⁶ cm/s | 121% | 122% | recovery ([17]; Sample-02, Caco-2, Sample-02): 120%
5 | CO[C@H]1C[C@H]2OC[C@@]2(OC(C)=O)[C@H]2[C@H](OC(=O)c3ccccc3)[C@]3(O)C[C@H](OC(=O)[C@H](O)[C@@H](NC(=O)c4ccccc4)c4ccccc4)C(C)=C([C@@H](OC(=O)N(C)C)C(=O)[C@]12C)C3(C)C [PCMI-23] | 96.3% | 94.8% | 87.7% | 77.8% | 80.8% | 94.5% | 84.8% | 78.3% | 97.2% | 87.9% | 99.8% | 93.8% | 81.8% | 93.5% | 84.8% | 83.3% | 3.21 ×10⁻⁶ cm/s | 2.68 ×10⁻⁶ cm/s | 87.1% | 100% | recovery ([17]; Sample-02, Caco-2, Sample-02): 74%
6 | COC(=O)O[C@H]1C(=O)[C@]2(C)[C@@H](OC)C[C@H]3OC[C@@]3(OC(C)=O)[C@H]2[C@H](OC(=O)c2ccccc2)[C@]2(O)C[C@H](OC(=O)[C@H](O)[C@@H](NC(=O)c3ccccc3)c3ccccc3)C(C)=C1C2(C)C [PCMI-27] | 96.3% | 94.1% | 103% | 74.8% | 79.2% | 94.1% | 83.3% | 78.3% | 97.4% | 87.3% | 99.5% | 94.5% | 82.6% | 95.3% | 83.3% | 80.4% | 4.44 ×10⁻⁶ cm/s | 4.31 ×10⁻⁶ cm/s | 95.6% | 99.3% | recovery ([17]; Sample-02, Caco-2, Sample-02): 91.9%
7 | CO[C@H]1C[C@H]2OC[C@@]2(OC(C)=O)[C@H]2[C@H](OC(=O)c3ccccc3)[C@]3(O)C[C@H](OC(=O)[C@H](O)[C@@H](NC(=O)OC(C)(C)C)c4ccccn4)C(C)=C([C@@H](OC(=O)N(C)C)C(=O)[C@]12C)C3(C)C [PCMI-24] | 94% | 95.5% | 86.8% | 73.8% | 78.9% | 93.5% | 84.7% | 81.1% | 98.1% | 88.1% | 100% | 92.2% | 81.1% | 82.3% | 76.3% | 83.6% | 2.93 ×10⁻⁶ cm/s | 3.1 ×10⁻⁶ cm/s | 100% | 106% | recovery ([17]; Sample-02, Caco-2, Sample-02): 94.8%
